US6559101B2, “N- (5, 7-dimethoxy [1, 2, 4] triazolo [1, 5-a] pyrimidin-2-yl) arylsulfonamide compounds and their use as herbicides” (Dow AgroSciences LLC, priority 2000, dated 2003)

Tests used:
Type in all cases: in vivo
[1] = tested on: barnyardgrass (Echinochloa crus-galli); experiment: Preemergence herbicidal activity; conditions: scored after 3 weeks, 0 no injury, 100 complete kill or no germination
Procedure: (§1) The soil matrix was contained in plastic pots with a surface area of 161 square centimeters. When required to ensure good germination and healthy plants, a fungicide treatment and/or other chemical or physical treatment was applied. A weighed amount, determined by the highest rate to be tested, of each test compound was placed in a 20 mL glass vial and was dissolved in 8 mL of a 97:3 v/v (volume/volume) mixture of acetone and dimethyl sulfoxide to obtain concentrated stock solutions. […] The stock solutions obtained were diluted with a 99.9:0.1 mixture of water and Tween® 155 surfactant (ethoxylated sorbitan fatty acid ester) to obtain application solutions of known concentration. The solutions containing the highest concentration to be tested were prepared by diluting 4 mL aliquots of the stock solution with 8.5 mL of the mixture and lower concentrations were prepared by dilution of appropriate smaller portions of the stock solution. A 2.5 mL aliquot of each solution of known concentration was sprayed evenly onto the soil of each seeded pot using a Cornwall 5.0 mL glass syringe fitted with a TeeJet TN-3 hollow cone nozzle to obtain thorough coverage of the soil in each pot. Control pots were sprayed in the same manner with the aqueous mixture. A highest application rate of 4.48 kg/ha is achieved when 50 mg of test compound is employed. The treated pots and control pots were placed in a greenhouse with an approximately 15 hr photoperiod which was maintained at about 23-29° C. during the day and 22-28° C. during the night. Nutrients and water were added on a regular basis and supplemental lighting was provided with overhead metal halide 1000 Watt lamps as necessary. The water was added by top-irrigation. After 3 weeks the condition of the test plants that germinated and grew as compared with that of the untreated plants that germinated and grew was determined visually and scored on a scale of 0 to 100 percent where 0 corresponds to no injury and 100 corresponds to complete kill or no germination.

[2] = tested on: velvetleaf (Abutilion theophrasti); experiment: Preemergence herbicidal activity; conditions: scored after 3 weeks, 0 no injury, 100 complete kill or no germination
Procedure: as §1

[3] = tested on: wild poinsettia (Euphorbia heterophylla); experiment: Preemergence herbicidal activity; conditions: scored after 3 weeks, 0 no injury, 100 complete kill or no germination
Procedure: as §1

[4] = tested on: pigweed (Amaranthus retroflexus); experiment: Preemergence herbicidal activity; conditions: scored after 3 weeks, 0 no injury, 100 complete kill or no germination
Procedure: as §1

[5] = tested on: Rox orange sorghum (Sorghum bicolor); experiment: Preemergence herbicidal activity; conditions: scored after 3 weeks, 0 no injury, 100 complete kill or no germination
Procedure: as §1

[6] = tested on: giant foxtail (Setaria faberi); experiment: Preemergence herbicidal activity; conditions: scored after 3 weeks, 0 no injury, 100 complete kill or no germination
Procedure: as §1

[7] = tested on: blackgrass (Alopecurus myosuroides); experiment: Preemergence herbicidal activity; conditions: scored after 3 weeks, 0 no injury, 100 complete kill or no germination
Procedure: as §1

[8] = tested on: morningglory (Ipomoea hederacea); experiment: Preemergence herbicidal activity; conditions: scored after 3 weeks, 0 no injury, 100 complete kill or no germination
Procedure: as §1

[9] = tested on: wild oats (Avena fatua); experiment: Preemergence herbicidal activity; conditions: scored after 3 weeks, 0 no injury, 100 complete kill or no germination
Procedure: as §1

[10] = tested on: crabgrass (Digitaria sanguinalis); experiment: Preemergence herbicidal activity; conditions: scored after 3 weeks, 0 no injury, 100 complete kill or no germination
Procedure: as §1

[11] = tested on: cocklebur (Xanthium strumarium); experiment: Preemergence herbicidal activity; conditions: 70 g/Ha; scored after 3 weeks; 0 no injury, 100 complete kill or no germination
Procedure: as §1

[12] = tested on: velvetleaf (Abutilion theophrasti); experiment: Postemergence herbicidal activity; conditions: scored after 2 weeks, 0 no injury, 100 complete kill
Procedure: (§2) Seeds of the desired test plant species were planted in Grace-Sierra MetroMix® 306 planting mixture, which typically has a pH of 6.0 to 6.8 and an organic matter content of about 30 percent, in plastic pots with a surface area of 64 square centimeters. When required to ensure good germination and healthy plants, a fungicide treatment and/or other chemical or physical treatment was applied. The plants were grown for 7-21 days in a greenhouse with an approximately 15 hr photoperiod which was maintained at about 23-29° C. during the day and 22-28° C. during the night. Nutrients and water were added on a regular basis and supplemental lighting was provided with overhead metal halide 1000 Watt lamps as necessary. The plants were employed for testing when they reached the first or second true leaf stage. A weighed amount of each test compound, determined by the highest rate to be tested, was placed in a 20 mL glass vial and was dissolved in 4 mL of a 97:3 v/v (volume/volume) mixture of acetone and dimethyl sulfoxide to obtain concentrated stock solutions. […] The concentrated stock solutions obtained were diluted with an aqueous mixture containing acetone, water, iso-propyl alcohol, dimethyl sulfoxide, Atplus 411F crop oil concentrate, and Triton X-155 surfactant (methylenebisdiamyl phenoxy polyethoxy ethanol) in a 48.5:39:10:1.5:1.0:0.02 v/v ratio to obtain spray solutions of known concentration. The solutions containing the highest concentration to be tested were prepared by diluting 2 mL aliquots of the stock solution with 13 mL of the mixture and lower concentrations were prepared by dilution of appropriate smaller portions of the stock solution. Approximately 1.5 mL aliquots of each solution of known concentration were sprayed evenly onto each of the test plant pots using a Devilbiss atomizer driven by compressed air pressure of 2 to 4 psi (140 to 280 kiloPascals) to obtain thorough coverage of each plant. Control plants were sprayed in the same manner with the aqueous mixture. In this test an application rate of 1 ppm results in the application of approximately 1 g/ha. The treated plants and control plants were placed in a greenhouse as described above and watered by sub-irrigation to prevent wash-off of the test compounds. After 2 weeks the condition of the test plants as compared with that of the untreated plants was determined visually and scored on a scale of 0 to 100 percent where 0 corresponds to no injury and 100 corresponds to complete kill.

[13] = tested on: pigweed (Amaranthus retroflexus); experiment: Postemergence herbicidal activity; conditions: scored after 2 weeks, 0 no injury, 100 complete kill
Procedure: as §2

[14] = tested on: Rox orange sorghum (Sorghum bicolor); experiment: Postemergence herbicidal activity; conditions: scored after 2 weeks, 0 no injury, 100 complete kill
Procedure: as §2

[15] = tested on: giant foxtail (Setaria faberi); experiment: Postemergence herbicidal activity; conditions: scored after 2 weeks, 0 no injury, 100 complete kill
Procedure: as §2

[16] = tested on: blackgrass (Alopecurus myosuroides); experiment: Postemergence herbicidal activity; conditions: scored after 2 weeks, 0 no injury, 100 complete kill
Procedure: as §2

[17] = tested on: morningglory (Ipomoea hederacea); experiment: Postemergence herbicidal activity; conditions: scored after 2 weeks, 0 no injury, 100 complete kill
Procedure: as §2

[18] = tested on: wild oats (Avena fatua); experiment: Postemergence herbicidal activity; conditions: scored after 2 weeks, 0 no injury, 100 complete kill
Procedure: as §2

[19] = tested on: lambsquarters (Chenopodium album); experiment: Postemergence herbicidal activity; conditions: scored after 2 weeks, 0 no injury, 100 complete kill
Procedure: as §2

[20] = tested on: viola (Viola tricolor); experiment: Postemergence herbicidal activity; conditions: scored after 2 weeks, 0 no injury, 100 complete kill
Procedure: as §2

[21] = tested on: wild buckwheat (Polygonum convolvulus); experiment: Postemergence herbicidal activity; conditions: scored after 2 weeks, 0 no injury, 100 complete kill
Procedure: as §2

[22] = tested on: cocklebur (Xanthium strumarium); experiment: Postemergence herbicidal activity; conditions: scored after 2 weeks, 0 no injury, 100 complete kill
Procedure: as §2

[23] = tested on: chickweed (Stellaria media); experiment: Postemergence herbicidal activity; conditions: scored after 2 weeks, 0 no injury, 100 complete kill
Procedure: as §2

[24] = tested on: lambsquarters (Chenopodium album); experiment: Preemergence herbicidal activity; conditions: 35 g/Ha; scored after 3 weeks; 0 no injury, 100 complete kill or no germination
Procedure: as §1

COc1cc(OC)n2nc(NS(=O)(=O)c3cc(Cl)ccc3OC)nc2n1 [Compound 5]
Preemergence herbicidal activity ECHCG ([1]; 70 g/Ha): 98%
Preemergence herbicidal activity ABUTH ([2]; 70 g/Ha): 95%
Preemergence herbicidal activity EPHHL ([3]; 70 g/Ha): 90%
Preemergence herbicidal activity AMARE ([4]; 70 g/Ha): 99%
Preemergence herbicidal activity SORBI ([5]; 70 g/Ha): 95%
Preemergence herbicidal activity SETFA ([6]; 70 g/Ha): 98%
Preemergence herbicidal activity ALOMY ([7]; 70 g/Ha): 100%
Preemergence herbicidal activity IPOHE ([8]; 70 g/Ha): 75%
Preemergence herbicidal activity AVEFA ([9]; 70 g/Ha): 99%
Preemergence herbicidal activity DIGSA ([10]; 70 g/Ha): 99%
Preemergence herbicidal activity XANST [11]: 85%
Postemergence herbicidal activity ABUTH ([12]; 62.5 ppm): 98%
Postemergence herbicidal activity AMARE ([13]; 62.5 ppm): 100%
Postemergence herbicidal activity SORBI ([14]; 62.5 ppm): 100%
Postemergence herbicidal activity SETFA ([15]; 62.5 ppm): 98%
Postemergence herbicidal activity ALOMY ([16]; 62.5 ppm): 95%
Postemergence herbicidal activity IPOHE ([17]; 62.5 ppm): 80%
Postemergence herbicidal activity AVEFA ([18]; 62.5 ppm): 99%
Postemergence herbicidal activity CHEAL ([19]; 62.5 ppm): 95%
Postemergence herbicidal activity VIOTR ([20]; 62.5 ppm): 90%
Postemergence herbicidal activity POLCO ([21]; 62.5 ppm): 98%
Postemergence herbicidal activity XANST ([22]; 62.5 ppm): 100%
Postemergence herbicidal activity STEME ([23]; 62.5 ppm): 98%

CCOc1ccc(C)cc1S(=O)(=O)Nc1nc2nc(OC)cc(OC)n2n1 [Compound 10]
Preemergence herbicidal activity ECHCG ([1]; 35 g/Ha): 80%
Preemergence herbicidal activity ABUTH ([2]; 35 g/Ha): 60%
Preemergence herbicidal activity EPHHL ([3]; 35 g/Ha): 40%
Preemergence herbicidal activity AMARE ([4]; 35 g/Ha): 98%
Preemergence herbicidal activity SORBI ([5]; 35 g/Ha): 100%
Preemergence herbicidal activity SETFA ([6]; 35 g/Ha): 40%
Preemergence herbicidal activity ALOMY ([7]; 35 g/Ha): 30%
Preemergence herbicidal activity IPOHE ([8]; 35 g/Ha): 0%
Preemergence herbicidal activity AVEFA ([9]; 35 g/Ha): 80%
Preemergence herbicidal activity CHEAL [24]: 90%
Preemergence herbicidal activity DIGSA ([10]; 35 g/Ha): 0%
Postemergence herbicidal activity ABUTH ([12]; 7.8 ppm): 50%
Postemergence herbicidal activity AMARE ([13]; 7.8 ppm): 95%
Postemergence herbicidal activity SORBI ([14]; 7.8 ppm): 85%
Postemergence herbicidal activity SETFA ([15]; 7.8 ppm): 80%
Postemergence herbicidal activity ALOMY ([16]; 7.8 ppm): 80%
Postemergence herbicidal activity IPOHE ([17]; 7.8 ppm): 20%
Postemergence herbicidal activity AVEFA ([18]; 7.8 ppm): 90%
Postemergence herbicidal activity CHEAL ([19]; 7.8 ppm): 95%
Postemergence herbicidal activity VIOTR ([20]; 7.8 ppm): 85%
Postemergence herbicidal activity POLCO ([21]; 7.8 ppm): 85%
Postemergence herbicidal activity XANST ([22]; 7.8 ppm): 50%
Postemergence herbicidal activity STEME ([23]; 7.8 ppm): 85%
